What was measured:
[1] = test system: Gram negative bacteria; assay: In vitro assessment of Gram negative activity (MIC/MBC panel); assay type: cell-based
Description: (§1) Minimum inhibitory concentrations (MIC), minimum bactericidal concentrations (MBC), rates of killing and the incidence of naturally occurring resistant mutants were determined for silver fusidate prepared according to Example 1. MICs were determined by the plate dilution method using IsoSensitest (IsoSensitest is a Trade Mark) media supplemented where necessary with 5% lysed horse blood. Two inocula were used, 10⁶ and 10⁴ cfu. MICs were read after overnight incubation in the appropriate atmosphere. The plates bearing the 10⁶ inocula were replicated using velvet pads for the determination of MBC which is defined as the lowest antibiotic concentration killing at least 99.9% of the original inoculum.
(§2) 20 strains of the following species were tested:
(§3) Gram negative: Escherichia coli, Enterobacter spp., Klebsiella pneumoniae, Acinetobacter spp., Pseudomonas aeruginosa, Providencia stuartii, Proteus mirabilis, indole-positive Proteae (10 each of Prov. rettgeri and Pr. vulgaris).

[2] = test system: coagulase negative Staphylococci; assay: MIC determination, zinc fusidate panel; assay type: cell-based; conditions: 2 strains
Description: (§4) MICs were determined for zinc fusidate prepared according to Example 3 using the following Gram positive and Gram negative panels:
(§5) 4 strains of Staphylococcus aureus (2 methicillin-resistant, 2 methicilllin-sensitive) and 2 strains each of coagulase-negative staphylococci, Staph. saprophyticus, Enterococci, Streptococcus pyogenes, Strept. agalactiae, Listeria monocytogenes, diphtheroids and Bacillus spp., 2 strains each of Escherichia coli, Klebsiella pneumoniae, Pseudomonas aeruginosa, Providencia stuartii, Proteus morganii, Salmonella typhimurium, Acinetobacter spp., Citrobacter freundii, Serratia marcescens and Enterobacter cloacae.

[3] = test system: remaining Gram positive organisms; assay: MIC determination, zinc fusidate panel; assay type: cell-based; conditions: remaining Gram positive organisms of the panel
Description: as §4, §5

[4] = test system: Gram positive bacteria; assay: MIC determination, zinc fusidate panel, overall assessment; assay type: cell-based
Description: as §4, §5

[5] = test system: MRSA; assay: MIC / MBC, plate dilution method (MBC by replica plating with velvet pads); assay type: cell-based, methicillin-resistant Staph. aureus (MRSA); conditions: inoculum of 10⁶ org/ml, 20 strains
Description: as §1, §2
(§6) Gram positive: methicillin-resistant Staph. aureus (MRSA), methicillin-sensitive Staph. aureus (MSSA), methicillin-resistant Staph. epidermidis (MRSE), Enterocci, Streptococcus pyogenes, Candida albicans, Clostridium spp.

[6] = test system: Pseudomas sp.; assay: as above; assay type: cell-based, Pseudomonas aeruginosa
Description: as §1, §2, §3

[7] = test system: various strains of Staphylococcus; assay: Incidence of naturally occurring resistant mutants; assay type: cell-based; conditions: absence of growth in the presence of 100 µg/ml
Description: as §1

[8] = test system: one particular strain of Staphyloccus; assay: Rates of killing; assay type: cell-based; conditions: non-growing state compared with growing state
Description: as §1
This is a very interesting observation because it is known that certain strains of Staphylococcus colonize, e.g., the nose, creating in the host a carrier state. Carrier state hosts are a constant source of potential infection both for themselves and those they come in contact with. This is a particularly troublesome source of infections in the hospital environment. It is recognized that the cheapest and most efficient way off removing this problem from a hospital is to remove or discharge the carrier. […]

[9] = test system: Gram positive and Gram negative bacteria and Candida albicans; assay: In vitro assessment of spectrum of activity (MIC/MBC panel); assay type: cell-based; conditions: compared to sodium fusidate and silver sulphadiazine
Description: as §1, §2, §6, §3

`CC(=O)O[C@H]1C[C@@]2(C)[C@@H](C[C@@H](O)[C@H]3[C@@]4(C)CC[C@@H](O)[C@@H](C)[C@@H]4CC[C@@]32C)/C1=C(\CCC=C(C)C)C(=O)O` [sodium fusidate] was tested, and the Gram negative activity [1] was “total lack of Gram negative activity”.
zinc fusidate was tested, and the MIC range [2] was 10 to 100 µg/mL, the MIC range [3] was less than 1 to 10 µg/mL and the “activity against Gram positive bacteria” value [4] was “demonstrates activity”.
With silver fusidate the MIC range [5] was 0.13 to 64 µg/mL, the MBC range [6] was 32 to 64 µg/mL and the MIC range [6] was 32 to 64 µg/mL. For the same compound, the “incidence of silver fusidate resistant mutants” value [7] was “too low to be measured”, the rate of killing [8] was “killed more rapidly in a non-growing state” and the spectrum of activity [9] was “broad spectrum of activity”.
“silver salt of N¹-(pyrimidin-2-yl) sulphanilamide [silver sulphadiazine, reference compound]” showed an MBC range ([5]; lowest concentration killing at least 99.9% of the original inoculum) of 128 to 256 µg/mL.
